# Measured values from patent US11661426B2, “Imidazole-containing inhibitors of ALK2 kinase” (BioCryst Pharmaceuticals, Inc., priority 2017, dated 2023).
# Target: ALK2 (Homo sapiens (Human), UniProt Q04771)
# Experiment: ALK2 inhibition, LanthaScreen Eu Kinase Binding Assay (ThermoFisher Scientific / Life Technologies)
# Conditions: read-out: Measured Ki (IC50) Value for Compounds: IC50
# Procedure: Biochemical assays to measure the inhibitory effects of the compounds were performed by ThermoFisher Scientific (Life Technologies). ALK2 inhibition was tested using LanthaScreen™ Eu Kinase Binding Assay screening protocol.
# Sequence of ALK2 (Q04771 21-509): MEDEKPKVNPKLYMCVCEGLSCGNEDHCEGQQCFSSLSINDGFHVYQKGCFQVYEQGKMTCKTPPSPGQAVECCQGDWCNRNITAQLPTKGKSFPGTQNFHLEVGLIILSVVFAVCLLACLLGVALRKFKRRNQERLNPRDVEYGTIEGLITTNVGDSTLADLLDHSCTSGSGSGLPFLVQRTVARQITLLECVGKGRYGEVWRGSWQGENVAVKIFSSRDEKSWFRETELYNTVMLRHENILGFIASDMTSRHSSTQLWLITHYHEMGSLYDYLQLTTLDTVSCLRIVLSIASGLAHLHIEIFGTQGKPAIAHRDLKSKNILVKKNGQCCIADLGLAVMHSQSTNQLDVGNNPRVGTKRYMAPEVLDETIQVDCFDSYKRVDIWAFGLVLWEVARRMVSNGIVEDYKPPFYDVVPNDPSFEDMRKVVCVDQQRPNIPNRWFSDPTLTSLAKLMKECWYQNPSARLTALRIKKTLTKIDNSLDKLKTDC
row,Compound,IC50
1,"COc1cc(-n2cnc(Nc3nc(-c4cccc(C=O)c4)nc4sc(CO)cc34)c2)cc(OC)c1OC [Compound 109a, 3-(6-(hydroxymethyl)-4-((1-(3,4,5-trimethoxyphenyl)-1H-imidazol-4-yl)amino)thieno[2,3-d]pyrimidin-2-yl)benzaldehyde]",< 100 nM
2,"COc1cc(-n2cnc(Nc3nc(-c4cccc(C=O)c4)nn4cccc34)c2)cc(OC)c1OC [Compound 110a, 3-(4-((1-(3,4,5-trimethoxyphenyl)-1H-imidazol-4-yl)amino)pyrrolo[2,1-f][1,2,4]triazin-2-yl)benzaldehyde]",< 100 nM
3,"COc1cc(-n2cnc(Nc3nc(N4CCC[C@H]4CO)nn4c(CN5CCOCC5)ccc34)c2)cc(OC)c1OC [Compound 111b, (S)-(1-(7-(morpholinomethyl)-4-((1-(3,4,5-trimethoxyphenyl)-1H-imidazol-4-yl)amino)pyrrolo[2,1-f][1,2,4]triazin-2-yl)pyrrolidin-2-yl)methanol]",< 100 nM
4,"COc1cc(-n2cnc(Nc3nc(N4CCC[C@H]4CO)nn4c(CN5CCN(C)CC5)ccc34)c2)cc(OC)c1OC [Compound 112b, (S)-(1-(7-((4-methylpiperazin-1-yl)methyl)-4-((1-(3,4,5-trimethoxyphenyl)-1H-imidazol-4-yl)amino)pyrrolo[2,1-f][1,2,4]triazin-2-yl)pyrrolidin-2-yl)methanol]",< 100 nM
5,"COc1cc(-n2cnc(Nc3nc(N4CCC[C@H]4CO)nc4sc(CN5CCCCC5)cc34)c2)cc(OC)c1OC [Compound 113b, (S)-(1-(6-(piperidin-1-ylmethyl)-4-((1-(3,4,5-trimethoxyphenyl)-1H-imidazol-4-yl)amino)thieno[2,3-d]pyrimidin-2-yl)pyrrolidin-2-yl)methanol]",< 100 nM
6,"COCCN1CCN(Cc2ccc3c(Nc4cn(-c5cc(OC)c(OC)c(OC)c5)cn4)nc(N4CCC[C@H]4CO)nn23)CC1 [Compound 114b, (S)-(1-(7-((4-(2-methoxyethyl)piperazin-1-yl)methyl)-4-((1-(3,4,5-trimethoxyphenyl)-1H-imidazol-4-yl)amino)pyrrolo[2,1-f][1,2,4]triazin-2-yl)pyrrolidin-2-yl)methanol]",< 100 nM

# Now from value to compound:
row,IC50,Compound
1,< 100 nM,"COc1cc(-n2cnc(Nc3nc(N4CCC[C@H]4CO)nc4sc(CN5CCN(C)CC5)cc34)c2)cc(OC)c1OC [Compound 104b, (S)-(1-(6-((4-methylpiperazin-1-yl)methyl)-4-((1-(3,4,5-trimethoxyphenyl)-1H-imidazol-4-yl)amino)thieno[2,3-d]pyrimidin-2-yl)pyrrolidin-2-yl)methanol]"
2,< 100 nM,"COc1cc(-n2cnc(Nc3nc(N4CCC[C@H]4CO)nn4c(CN5CCCCC5)ccc34)c2)cc(OC)c1OC [Compound 105b, (S)-(1-(7-(piperidin-1-ylmethyl)-4-((1-(3,4,5-trimethoxyphenyl)-1H-imidazol-4-yl)amino)pyrrolo[2,1-f][1,2,4]triazin-2-yl)pyrrolidin-2-yl)methanol]"
3,< 100 nM,"COc1cc(-n2cnc(Nc3nc(N4CCC[C@H]4CO)nn4c(CN5CCN(C6CC6)CC5)ccc34)c2)cc(OC)c1OC [Compound 106b, (S)-(1-(7-((4-cyclopropylpiperazin-1-yl)methyl)-4-((1-(3,4,5-trimethoxyphenyl)-1H-imidazol-4-yl)amino)pyrrolo[2,1-f][1,2,4]triazin-2-yl)pyrrolidin-2-yl)methanol]"
4,< 100 nM,"COc1cc(-n2cnc(Nc3nc(N4CCC[C@H]4CO)nn4c(C5=CCNCC5)ccc34)c2)cc(OC)c1OC [Compound 107a, (S)-(1-(7-(1,2,3,6-tetrahydropyridin-4-yl)-4-(1-(3,4,5-trimethoxyphenyl)-1H-imidazol-4-ylamino)pyrrolo[1,2-f][1,2,4]triazin-2-yl)pyrrolidin-2-yl)methanol]"
5,< 100 nM,"COc1cc(-n2cnc(Nc3nc(N4CCC[C@H]4CO)nc4sc(CN5CCN(c6ccccn6)CC5)cc34)c2)cc(OC)c1OC [Compound 108b, (S)-(1-(6-((4-(pyridin-2-yl)piperazin-1-yl)methyl)-4-((1-(3,4,5-trimethoxyphenyl)-1H-imidazol-4-yl)amino)thieno[2,3-d]pyrimidin-2-yl)pyrrolidin-2-yl)methanol]"
